Activity calls are given as the source filed them. The rule behind the calls is not given here.
Legend:
Type in all cases: cell-based
[1] = Inhibition of NF-kappaB activation expressed in TNFalpha-stimulated human HepG2 cells co-transfected with […] plasmid pretreated for 1 hr before TNFalpha challenge measured after 24 hrs by luciferase reporter gene assay
HepG2 [2] = assay: Cytotoxicity against human HepG2 cells assessed as cell viability at 10 uM after 24 hrs by MTS assay; conditions: hepg2, 24 h
HepG2 [3] = assay: Inhibition of NFkappaB activation expressed in human HepG2 cells assessed as reduction in TNF-alpha-induced iNOS mRNA expression preincubated 1 hr before TNFalpha challenge measured after 6 hrs by RT-PCR analysis
HepG2 [4] = assay: Inhibition of NF-kappaB activation expressed in human HepG2 cells assessed as reduction in TNFalpha-induced COX2 mRNA expression preincubated 1 hr before TNFalpha challenge measured after 6 hrs by RT-PCR analysis
[5] = target: T1, Peroxisome proliferator-activated receptor alpha (Homo sapiens) (UniProt Q07869); assay: Transactivation of Gal4-fused PPARalpha ligand binding domain expressed in human HepG2 cells co-transfected with pFR-Luc and pRL-CMV at 0.1 to 10 uM after 20 hrs by dual-luciferase reporter gene assay
T1 sequence (whole entry): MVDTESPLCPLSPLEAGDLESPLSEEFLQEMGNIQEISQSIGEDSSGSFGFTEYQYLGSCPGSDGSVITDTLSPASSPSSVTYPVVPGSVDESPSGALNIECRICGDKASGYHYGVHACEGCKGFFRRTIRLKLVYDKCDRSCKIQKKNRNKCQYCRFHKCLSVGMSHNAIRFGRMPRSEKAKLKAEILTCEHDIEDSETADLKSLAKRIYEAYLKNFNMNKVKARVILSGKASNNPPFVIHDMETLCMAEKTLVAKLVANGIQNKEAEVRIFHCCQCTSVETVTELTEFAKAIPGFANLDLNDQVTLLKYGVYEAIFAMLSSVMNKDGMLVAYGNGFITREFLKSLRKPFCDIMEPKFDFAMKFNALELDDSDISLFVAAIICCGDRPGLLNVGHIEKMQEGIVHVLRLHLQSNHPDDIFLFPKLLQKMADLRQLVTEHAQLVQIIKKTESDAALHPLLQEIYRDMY

[6] = target: T2, Peroxisome proliferator-activated receptor delta (Homo sapiens) (UniProt Q03181); assay: Transactivation of Gal4-fused PPARbeta/delta ligand binding domain expressed in human HepG2 cells co-transfected with pFRLuc and pRL-CMV at 0.1 to 10 uM after 20 hrs by dual-luciferase reporter gene assay
T2 sequence (whole entry): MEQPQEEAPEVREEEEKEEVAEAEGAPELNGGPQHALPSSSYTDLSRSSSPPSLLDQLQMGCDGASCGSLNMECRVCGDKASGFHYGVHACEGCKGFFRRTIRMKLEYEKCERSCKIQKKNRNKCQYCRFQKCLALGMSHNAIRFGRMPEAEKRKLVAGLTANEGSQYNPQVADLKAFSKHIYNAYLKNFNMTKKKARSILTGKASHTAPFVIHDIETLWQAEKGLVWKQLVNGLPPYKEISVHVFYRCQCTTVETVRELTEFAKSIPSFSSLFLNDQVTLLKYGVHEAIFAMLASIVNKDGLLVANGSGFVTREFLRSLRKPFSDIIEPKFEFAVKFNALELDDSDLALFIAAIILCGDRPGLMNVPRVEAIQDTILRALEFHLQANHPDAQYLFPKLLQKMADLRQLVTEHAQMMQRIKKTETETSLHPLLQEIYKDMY

[7] = target: T3, Peroxisome proliferator-activated receptor gamma (Homo sapiens) (UniProt P37231); assay: Transactivation of Gal4-fused PPARgamma ligand binding domain expressed in human HepG2 cells co-transfected with pFR-Luc and pRL-CMV at 0.1 to 10 uM after 20 hrs by dual-luciferase reporter gene assay
T3 sequence (whole entry): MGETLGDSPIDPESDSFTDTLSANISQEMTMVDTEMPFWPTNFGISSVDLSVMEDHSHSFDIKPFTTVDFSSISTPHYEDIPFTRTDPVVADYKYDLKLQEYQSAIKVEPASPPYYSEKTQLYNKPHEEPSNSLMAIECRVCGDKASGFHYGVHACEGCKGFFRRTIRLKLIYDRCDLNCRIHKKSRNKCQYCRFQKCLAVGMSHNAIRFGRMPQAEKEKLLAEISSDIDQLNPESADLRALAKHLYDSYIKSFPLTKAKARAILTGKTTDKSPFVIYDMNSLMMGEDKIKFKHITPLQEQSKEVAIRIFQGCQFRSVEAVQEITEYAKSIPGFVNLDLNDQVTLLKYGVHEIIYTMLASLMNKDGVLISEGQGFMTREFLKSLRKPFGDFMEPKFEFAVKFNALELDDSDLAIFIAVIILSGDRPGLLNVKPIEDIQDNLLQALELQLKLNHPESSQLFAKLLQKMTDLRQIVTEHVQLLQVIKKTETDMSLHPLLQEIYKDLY

SMILES	IC50 [1] [µM]	Activity (HepG2 [2])	inhibition (HepG2 [3])	inhibition (HepG2 [4])	Activity [5]	Activity [6]	Activity [7]
O=C(O)c1cc(/N=N/c2ccc(S(=O)(=O)Nc3ccccn3)cc2)ccc1O [SULFASALAZINE]	0.9						
CC1(C)CC[C@]2(C(=O)O[C@@H]3O[C@H](CO)[C@@H](O)[C@H](O)[C@H]3O)CC[C@]3(C)C(=CC[C@@H]4[C@@]5(C)CC[C@H](O[C@@H]6O[C@H](C(=O)O)[C@@H](O)[C@H](O[C@@H]7O[C@H](CO)[C@@H](O)[C@H](O)[C@H]7O)[C@H]6O[C@@H]6OC[C@H](O)[C@H](O)[C@H]6O)C(C)(C)[C@@H]5CC[C@]43C)[C@@H]2C1	9.5	Non-toxic	Dose-dependent effect	Dose-dependent effect	inactive	inactive	Active
CC1(C)CC[C@]2(C(=O)O[C@@H]3O[C@H](CO)[C@@H](O)[C@H](O)[C@H]3O)CC[C@]3(C)C(=CC[C@@H]4[C@@]5(C)CC[C@H](O[C@@H]6O[C@H](C(=O)O)[C@@H](O[C@@H]7O[C@@H](CO)[C@H](O)[C@H]7O)[C@H](O)[C@H]6O[C@@H]6O[C@H](CO)[C@@H](O)[C@H](O)[C@H]6O)C(C)(C)[C@@H]5CC[C@]43C)[C@@H]2C1 [TARASAPONIN IV]		Non-toxic					
CC1(C)CC[C@]2(C(=O)O[C@@H]3O[C@H](CO[C@@H]4O[C@H](CO)[C@@H](O)[C@H](O)[C@H]4O)[C@@H](O)[C@H](O)[C@H]3O)CC[C@]3(C)C(=CC[C@@H]4[C@@]5(C)CC[C@H](O[C@@H]6O[C@H](C(=O)O)[C@@H](O[C@@H]7O[C@@H](CO)[C@H](O)[C@H]7O)[C@H](O)[C@H]6O[C@@H]6O[C@H](CO[C@@H]7O[C@H](CO)[C@@H](O)[C@H](O)[C@H]7O)[C@@H](O)[C@H](O)[C@H]6O)C(C)(C)[C@@H]5CC[C@]43C)[C@@H]2C1 [ELATOSIDE L]	4.1	Non-toxic	Dose-dependent effect	Dose-dependent effect			
CC1(C)CC[C@]2(C(=O)O[C@@H]3O[C@H](CO)[C@@H](O)[C@H](O)[C@H]3O)CC[C@]3(C)C(=CC[C@@H]4[C@@]5(C)CC[C@H](O[C@@H]6O[C@H](C(=O)O)[C@@H](O[C@H]7O[C@@H](CO)[C@H](O)[C@H]7O)[C@H](O[C@@H]7O[C@H](CO)[C@@H](O)[C@H](O)[C@H]7O)[C@H]6O)C(C)(C)[C@@H]5CC[C@]43C)[C@@H]2C1 [STIPULEANOSIDE R2]		Non-toxic					
COC(=O)[C@H]1O[C@@H](O[C@H]2CC[C@]3(C)[C@H]4CC=C5[C@@H]6CC(C)(C)CC[C@]6(C(=O)O[C@@H]6O[C@H](CO)[C@@H](O)[C@H](O)[C@H]6O)CC[C@@]5(C)[C@]4(C)CC[C@H]3C2(C)C)[C@H](O[C@@H]2OC[C@H](O)[C@H](O)[C@H]2O)[C@@H](O[C@@H]2O[C@H](CO)[C@@H](O)[C@H](O)[C@H]2O)[C@@H]1O		Non-toxic			inactive	inactive	Active
CC1(C)CC[C@]2(C(=O)O[C@@H]3O[C@H](CO)[C@@H](O)[C@H](O)[C@H]3O)CC[C@]3(C)C(=CC[C@@H]4[C@@]5(C)CC[C@H](O[C@@H]6O[C@H](C(=O)O)[C@@H](O)[C@H](O[C@@H]7O[C@H](CO)[C@H](O)[C@H](O)[C@H]7O)[C@H]6O[C@@H]6O[C@H](CO)[C@H](O)[C@H](O)[C@H]6O)C(C)(C)[C@@H]5CC[C@]43C)[C@@H]2C1 [ELATOSIDE D]		Non-toxic			inactive	inactive	Active
